{"source": "patent US20230381168A1", "about": "“ADJUNCTIVE THERAPY FOR DEPRESSION” (ANeuroTech IP BV, priority 2020, published 2023)", "key": {"[1]": {"tested_on": "patients suffering from moderate to severe MDD", "test": "double-blind randomized multi-centre study, reported side effects (treatment emergent adverse effects)", "format": "in vivo, human"}, "[2]": {"tested_on": "participants with major depressive disorder on continuing SSRI/SNRI", "test": "placebo-controlled crossover study, PROMIS cognitive function questionnaire (subjective cognitive function)", "format": "in vivo, human", "protocol": "Eligible participants were admitted to the study center on Day 1 of Period 1 for first dosing. […] The cognitive function was measured using the PROMIS cognitive function questionnaire, completed in the morning, midday and evening. […] A higher T-score reflects a better cognitive functioning of the participant. […] Positive responders were further evaluated for the key secondary objective."}, "[3]": {"tested_on": "participants with major depressive disorder on continuing SSRI/SNRI", "test": "placebo-controlled crossover study, mood questionnaire", "format": "in vivo, human", "protocol": "Participants randomized to receive Treatment B were administered placebo containing drinkable water with […] flavor. Each study week the participants received 10 mL of their study medication in an amber glass bottle with dropper containing 200 droplets. […] The mood of the participants was also be measured using a questionnaire which evaluated going from very happy, relaxed, excited, not worried and fearful at all (1) to very sad, not relaxed and excited at all, extremely worried and fearful (5). This questionnaire was completed in the morning and in the evening."}, "D4 receptor": {"biological_target": "T1, D4 receptor (Homo sapiens, UniProt P21917)", "T1 sequence (P21917 1-419)": "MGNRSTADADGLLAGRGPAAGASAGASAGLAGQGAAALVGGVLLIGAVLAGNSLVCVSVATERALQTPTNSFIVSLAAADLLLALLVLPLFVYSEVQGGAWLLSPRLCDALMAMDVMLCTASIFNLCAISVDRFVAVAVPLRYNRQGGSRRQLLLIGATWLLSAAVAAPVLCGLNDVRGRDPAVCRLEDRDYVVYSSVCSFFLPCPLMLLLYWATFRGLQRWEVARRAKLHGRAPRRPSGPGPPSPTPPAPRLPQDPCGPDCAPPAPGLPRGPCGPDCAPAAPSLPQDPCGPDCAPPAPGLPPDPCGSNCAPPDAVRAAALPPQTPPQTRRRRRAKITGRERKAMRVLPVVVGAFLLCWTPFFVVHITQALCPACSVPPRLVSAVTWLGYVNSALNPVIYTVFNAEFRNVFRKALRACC", "conditions": "cited from earlier work"}, "[4]": {"tested_on": "participants with major depressive disorder on continuing SSRI/SNRI", "test": "placebo-controlled crossover study, sleep quality questionnaire", "format": "in vivo, human", "conditions": "all participants; 14 mg", "protocol": "Participants randomized to receive Treatment B were administered placebo containing drinkable water with […] flavor. Each study week the participants received 10 mL of their study medication in an amber glass bottle with dropper containing 200 droplets. […] The sleep quality of the participants was measured using a scale going from very bad (1) to excellent (5). This questionnaire was only completed in the morning."}, "H1 receptor": {"biological_target": "H1 receptor (Homo sapiens, UniProt P35367)", "sequence (P35367 whole entry)": "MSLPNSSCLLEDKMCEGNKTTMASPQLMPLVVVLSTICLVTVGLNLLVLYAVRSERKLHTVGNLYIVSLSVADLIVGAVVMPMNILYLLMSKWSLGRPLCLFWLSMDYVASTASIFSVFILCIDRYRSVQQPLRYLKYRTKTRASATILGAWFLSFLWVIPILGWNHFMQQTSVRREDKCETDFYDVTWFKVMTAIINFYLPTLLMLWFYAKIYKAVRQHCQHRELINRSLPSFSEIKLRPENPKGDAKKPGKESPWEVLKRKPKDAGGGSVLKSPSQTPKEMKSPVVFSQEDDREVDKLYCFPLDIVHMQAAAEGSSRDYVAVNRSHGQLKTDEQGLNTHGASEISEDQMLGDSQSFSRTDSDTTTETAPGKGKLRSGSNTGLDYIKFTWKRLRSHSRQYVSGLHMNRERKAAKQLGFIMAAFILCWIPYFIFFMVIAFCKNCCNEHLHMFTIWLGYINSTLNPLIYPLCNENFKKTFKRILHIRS", "conditions": "cited from earlier work"}, "[5]": {"tested_on": "participants with major depressive disorder on continuing SSRI/SNRI", "test": "placebo-controlled crossover study, Karolinska Sleepiness Scale", "format": "in vivo, human", "protocol": "Participants randomized to receive Treatment B were administered placebo containing drinkable water with […] flavor. Each study week the participants received 10 mL of their study medication in an amber glass bottle with dropper containing 200 droplets. […] The sleepiness of the participants was also be measured using the Karolinska Sleepiness Scale going from very sleepy, having great difficulty staying awake, fighting sleep (9) to extremely alert (1). This questionnaire was completed in the morning, midday and evening."}, "mACh receptors": {"tested_on": "mACh receptors", "conditions": "cited from earlier work"}, "[6]": {"tested_on": "subjects with a medical history of major depressive disorder and current insomnia", "test": "cognitive performance by Mini Mental State Examination (MMSE) in treated case subjects PT1-PT3", "format": "in vivo, human", "protocol": "During the last three weeks of this period, the subject was treated with transcranial anodal direct current stimulation (tDCS) in daily sessions of 30 minutes in the morning every day of the week except Saturday and Sunday. The tDCS dose was 2 mA. The anode was placed over the left dorsolateral prefrontal cortex and the cathode was placed over the right dorsolateral prefrontal cortex. […] This combined treatment was continued for a following 3 weeks."}, "[7]": {"tested_on": "patients suffering from moderate to severe MDD", "test": "double-blind randomized multi-centre study, MADRS assessed by the clinical rater", "format": "in vivo, human", "protocol": "Cognitive enhancement and suicidal thoughts were evaluated respectively according to the Montgomery-Asberg Depression Rating Scale (MADRS) item 6 and item 10, after 10 weeks of study treatment as assessed by the clinical rater. […] Remission rate of reduced ability to read/communicate is defined as a MADRS Item 6 total score at Baseline (Day 1)>3 to (end of) Week 10≤3 at Week 10 as assessed by the clinical rater. […] Change from baseline in total score on MADRS after the indicated period of study treatment as assessed by the clinical rater. […] Remission is defined as a MADRS total score ≤10 at the indicated period as assessed by the clinical rater. An international, double-blind, centrally randomized (stratified), multi-centre study in more than 400 patients suffering from moderate to severe MDD in up to 40 sites in the USA was conducted. […] Study visits were conducted 1, 2, 3, 4, 6, 8 and 10 weeks after study treatment initiation. Possible withdrawal effects were assessed 1 week after study treatment withdrawal. After 2, 3, 4, 6, and 10 weeks, patients were evaluated."}, "[8]": {"tested_on": "MDD patients on antidepressant (partial responsive depression)", "test": "analysis of 62 MDD patients treated with adjunctive low-dose pipamperone", "format": "in vivo, human"}, "[9]": {"tested_on": "subject with medical history of major depression and severe insomnia", "test": "sleep analysis with full PSG battery (EEG, EMG, infra-red video and sound): clinical relevant restlessness events", "format": "in vivo, human", "conditions": "PT1, after 3 weeks pipamperone 20 mg/day with tDCS", "description": "While during sleep the subject had no own noise making behaviour with an observed stable background noise level of +/−40 dB in the room, during these events the subject produced clear-cut enhancement of noise in the room with acute values of more than 50 dB combined with observable muscle activity (as observed by the EMG pattern), a state of being awake (as observed by the EEG) and an agitated behaviour (as observed by the clinical inspection infra-red video images)."}, "[10]": {"tested_on": "participants with major depressive disorder on continuing SSRI/SNRI", "test": "placebo-controlled crossover study, PROMIS Sleep-related impairments questionnaire", "format": "in vivo, human", "protocol": "Participants randomized to receive Treatment B were administered placebo containing drinkable water with […] flavor. Each study week the participants received 10 mL of their study medication in an amber glass bottle with dropper containing 200 droplets. […] The sleep-related impairments were assessed using the PROMIS Sleep-related impairments questionnaire, completed in the morning, midday and evening. […] A higher T-score reflects more sleep-related impairments during the day."}, "[11]": {"conditions": "prematurely discontinued patients"}, "[12]": {"conditions": "in particular after 6 weeks, even more so after 10 weeks"}}, "note": "Entries after “also recorded” stand apart in the source; their conditions may differ.", "data": [{"smiles": "CN(C)CCCC1(c2ccc(F)cc2)OCc2cc(C#N)ccc21", "note": "(stereo not shown) [Citalopram, citalopram]", "values": [{"measurement": "Decreased Appetite", "setting": "[1]; all patients", "result": 5.7, "unit": "%"}, {"measurement": "Diarrhoea", "setting": "[1]; all patients", "result": 9.7, "unit": "%"}, {"measurement": "Nausea", "setting": "[1]; all patients", "result": 16, "unit": "%"}, {"measurement": "Somnolence", "setting": "[1]; all patients", "result": 11.4, "unit": "%"}, {"measurement": "Decreased Appetite", "setting": "[1]; [11]", "result": 9, "unit": "%"}, {"measurement": "Diarrhoea", "setting": "[1]; [11]", "result": 11, "unit": "%"}, {"measurement": "Nausea", "setting": "[1]; [11]", "result": 18, "unit": "%"}, {"measurement": "Somnolence", "setting": "[1]; [11]", "result": 16, "unit": "%"}, {"measurement": "Vomiting", "setting": "[1]; [11]", "result": 9, "unit": "%"}]}, {"smiles": "NC(=O)C1(N2CCCCC2)CCN(CCCC(=O)c2ccc(F)cc2)CC1", "note": "[pipamperone, 1′-[3-(p-fluorobenzoyl)propyl]-[1,4′-bipiperidine]-4′-carboxamide]", "values": [{"measurement": "SUBJECTIVE COGNITIVE DECLINE: NON RESPONDER", "setting": "[2]; 14 mg ad noctum add-on, 6 participants", "result": 17, "unit": "%"}, {"measurement": "SUBJECTIVE COGNITIVE DECLINE: RESPONDER", "setting": "[2]; 14 mg ad noctum add-on, 6 participants, Fisher exact test 0.0006, p<0.05", "result": 50, "unit": "%"}, {"measurement": "subjective cognitive function versus placebo", "setting": "[2]; 14 mg, 14 days, add-on to SSRI/SNRI", "result": "statistical significant (p<0.05) improvement"}, {"measurement": "improvement of cognitive functioning compared with placebo", "setting": "[2]; the two participants with high MADRS item 6 score (XR0 and WL4), 14 mg", "result": "highest improvement"}, {"measurement": "Mood, pipamperone 14 mg vs placebo", "setting": "[3]", "result": "no clear difference"}, {"measurement": "affinity for the D4 receptor over the D2 receptor", "setting": "D4 receptor", "result": 15, "unit": "fold"}, {"measurement": "sleep quality compared with placebo", "setting": "[4]", "result": "better quality of sleep"}, {"measurement": "Decreased Appetite", "setting": "[1]; all patients", "result": 1.6, "unit": "%"}, {"measurement": "Diarrhoea", "setting": "[1]; all patients", "result": 0.5, "unit": "%"}, {"measurement": "Nausea", "setting": "[1]; all patients", "result": 7.7, "unit": "%"}, {"measurement": "Somnolence", "setting": "[1]; all patients", "result": 6.6, "unit": "%"}, {"measurement": "side effects overall (treatment emergent adverse effects, TEAE) compared to citalopram", "setting": "[1]; all patients and prematurely discontinued patients", "result": "low amount of side effects"}, {"measurement": "Decreased Appetite", "setting": "[1]; [11]", "result": 0, "unit": "%"}, {"measurement": "Diarrhoea", "setting": "[1]; [11]", "result": 0, "unit": "%"}, {"measurement": "Nausea", "setting": "[1]; [11]", "result": 6, "unit": "%"}, {"measurement": "Somnolence", "setting": "[1]; [11]", "result": 8, "unit": "%"}, {"measurement": "Vomiting", "setting": "[1]; [11]", "result": 0, "unit": "%"}, {"measurement": "side effects in subjects who discontinued the trial prematurely", "setting": "[1]; [11]", "result": "significantly fewer side effects"}, {"measurement": "affinity for the H1 receptor", "setting": "H1 receptor", "result": "low and likely insignificant"}, {"measurement": "Karolinska Sleepiness Scale, pipamperone 14 mg vs placebo", "setting": "[5]", "result": "no clear difference"}, {"measurement": "affinity for the mACh receptors", "setting": "mACh receptors", "result": "low and likely insignificant"}, {"measurement": "MMSE score", "setting": "[6]; PT1, after 3 weeks pipamperone 20 mg/day combined with 15 sessions tDCS 2 mA, 27 before treatment", "result": 30}, {"measurement": "MMSE total score", "setting": "[6]; PT1, another 2 months after tDCS was terminated, pipamperone 20 mg/d continued", "result": "30 /30"}, {"measurement": "MMSE", "setting": "[6]; PT2 (severe cognitive deterioration, 18/30 before), after 6 weeks of treatment", "result": "17 /30"}, {"measurement": "MMSE", "setting": "[6]; PT3 (28/30 before), after treatment", "result": "30 /30"}, {"measurement": "restored cognitive performance", "setting": "[6]; PT3, continuous (6 months) intake of low dose pipamperone", "result": "sustained"}, {"measurement": "cognitive enhancement rate (remission of reduced ability to read/communicate, MADRS item 6) compared to citalopram", "setting": "[7]; after 10 weeks of treatment", "result": "superior"}, {"measurement": "cognitive function (MADRS item 6, change from baseline) compared to citalopram", "setting": "[7]; after 10 weeks, 15 mg QD", "result": "Statistically significant superior effect; also recorded: statistically significant enhancement"}, {"measurement": "suicidal thoughts (MADRS item 10, change from baseline) compared to citalopram", "setting": "[7]; after 10 weeks, 15 mg QD", "result": "Statistically significant superior effect; also recorded: significant reduction"}, {"measurement": "decrease of severity of major depressive disorder (MADRS total score) compared to citalopram", "setting": "[7]; [12]", "result": "superior decrease"}, {"measurement": "proportion of patients in remission of major depressive disorder (MADRS total score ≤10) compared to citalopram", "setting": "[7]; [12]", "result": "superior increase"}, {"measurement": "residual symptoms anhedonia and cognitive impairment", "setting": "[8]; adjunctive 15 mg daily, MDD remittors", "result": "resolved"}, {"measurement": "patients still responding to adjunctive treatment", "setting": "[8]; after at least more than 1 year of treatment, n=53 of 62", "result": 85, "unit": "%"}, {"measurement": "tolerability of the treatment", "setting": "[8]; long-term adjunctive treatment", "result": "extremely good tolerability"}, {"measurement": "patients in sustained remission", "setting": "[8]; printed as 'of these responders', n=25", "result": 40, "unit": "%"}, {"measurement": "cases that went into sustained remission after switch from existing adjunctive treatment", "setting": "[8]; switched from quetiapine, amisulpride, risperidone or clozapine", "result": "6 out of these 8 cases"}, {"measurement": "insomnia", "setting": "[9]", "result": "improvement"}, {"measurement": "reduction of the clinical restlessness events", "setting": "[9]", "result": 75, "unit": "%"}, {"measurement": "number of clinical restlessness events at night after treatment", "setting": "[9]; 4 before", "result": 1}, {"measurement": "Sleep-related impairments, pipamperone 14 mg vs placebo", "setting": "[10]", "result": "no clear difference"}]}]}
